Experiment in all cases: Kinase panel profiling at 1 µmol/L (MSA or IMAP), percentage inhibition
Common to all, as to type: biochemical

Assay [1] deals with panel of 255 wild-type kinases (Homo sapiens, UniProt Q16654). The note with it: read-out: %-inhibition at 1 µmol/L, PDHK4.
Assay [2] deals with panel of 255 wild-type kinases (Homo sapiens, UniProt Q13555). The note with it: read-out: %-inhibition CaMK2γ.
Assay [3] has as its target panel of 255 wild-type kinases (Homo sapiens, UniProt Q15303). The note with it: read-out: %-inhibition at 1 µmol/L, HER4.
Assay [4] addresses panel of 255 wild-type kinases (Homo sapiens, UniProt P31751). The note with it: read-out: %-inhibition AKT2.
The target of assay [5] is panel of 255 wild-type kinases (Homo sapiens, UniProt P54646). The settings on record: read-out: %-inhibition AMPKα2/β1/γ1.
For assay [6], the target named is panel of 255 wild-type kinases (Homo sapiens, UniProt Q9HC98). The note with it: read-out: %-inhibition, NEK6.
In assay [7] the target is panel of 255 wild-type kinases (Homo sapiens, UniProt Q9HBH9). The note with it: read-out: %-inhibition, MNK2.
For assay [8], the target named is panel of 255 wild-type kinases (Homo sapiens, UniProt Q96RG2). The note with it: read-out: %-inhibition, PASK.
The target in assay [9] is panel of 255 wild-type kinases (Homo sapiens, UniProt P45983). The settings on record: read-out: %-inhibition at 1 µmol/L, JNK1.
The target of assay [10] is panel of 255 wild-type kinases (Homo sapiens, UniProt P49759). The settings on record: read-out: %-inhibition at 1 µmol/L, CLK1.
For assay [11], the target named is panel of 255 wild-type kinases (Homo sapiens, UniProt P07948). The note with it: read-out: %-inhibition at 1 µmol/L, LYNa.
Assay [12] addresses T1, panel of 255 wild-type kinases (Homo sapiens, UniProt Q12851).
T1 sequence (Q12851 1-820): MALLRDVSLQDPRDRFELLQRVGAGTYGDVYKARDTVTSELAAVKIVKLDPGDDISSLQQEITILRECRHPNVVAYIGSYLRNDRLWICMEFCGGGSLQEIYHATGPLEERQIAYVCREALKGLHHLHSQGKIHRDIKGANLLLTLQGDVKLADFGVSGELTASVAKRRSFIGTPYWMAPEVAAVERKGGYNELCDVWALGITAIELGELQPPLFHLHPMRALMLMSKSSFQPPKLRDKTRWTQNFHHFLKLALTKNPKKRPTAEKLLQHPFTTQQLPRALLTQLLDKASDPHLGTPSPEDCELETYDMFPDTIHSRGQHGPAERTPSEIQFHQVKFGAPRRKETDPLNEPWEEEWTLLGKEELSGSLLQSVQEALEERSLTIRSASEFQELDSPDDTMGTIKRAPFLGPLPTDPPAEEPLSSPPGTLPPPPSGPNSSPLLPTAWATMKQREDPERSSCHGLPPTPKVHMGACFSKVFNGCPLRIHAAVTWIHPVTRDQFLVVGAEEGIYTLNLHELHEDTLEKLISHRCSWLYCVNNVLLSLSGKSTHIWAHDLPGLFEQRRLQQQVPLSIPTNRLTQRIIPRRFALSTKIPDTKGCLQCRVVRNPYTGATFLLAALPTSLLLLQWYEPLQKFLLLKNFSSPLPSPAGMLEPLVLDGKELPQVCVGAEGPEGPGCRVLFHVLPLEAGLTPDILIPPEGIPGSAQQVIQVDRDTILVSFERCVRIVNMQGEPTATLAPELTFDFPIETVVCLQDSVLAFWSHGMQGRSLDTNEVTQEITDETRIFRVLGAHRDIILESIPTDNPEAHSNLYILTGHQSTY
The settings on record: read-out: %-inhibition at 1 µmol/L, MAP4K2.

Assay [13] concerns the target panel of 255 wild-type kinases (Homo sapiens, UniProt P06213). The note with it: read-out: %-inhibition at 1 µmol/L, INSR.
For assay [14], the target named is panel of 255 wild-type kinases (Homo sapiens, UniProt P24941).
Assay [15] addresses panel of 255 wild-type kinases (Homo sapiens, UniProt O14578). The note with it: read-out: %-inhibition at 1 µmol/L, CRIK.
The target in assay [16] is panel of 255 wild-type kinases (Homo sapiens, UniProt P48730). The settings on record: read-out: %-inhibition at 1 µmol/L, CK1δ.
In assay [17] the target is panel of 255 wild-type kinases (Homo sapiens, UniProt Q14012). The settings on record: read-out: %-inhibition CaMK1α.
The mark [18] stands for this setting: kinase PDHK4, 1 µmol/L single concentration.
Setting [19] is: CaMK2γ kinase assay, 1 µmol/L single concentration.
[20] abbreviates: kinase HER4, 1 µmol/L single concentration.
[21] abbreviates: AKT2 kinase assay, 1 µmol/L single concentration.
[22] abbreviates: AMPKα2/β1/γ1 kinase assay, 1 µmol/L single concentration.
Where [23] appears, read: NEK6, 1 µmol/L single concentration.
The mark [24] stands for this setting: MNK2, 1 µmol/L single concentration.
Where [25] appears, read: PASK, 1 µmol/L single concentration.
Setting [26] is: kinase JNK1, 1 µmol/L single concentration.
[27] abbreviates: kinase CLK1, 1 µmol/L single concentration.
The mark [28] stands for this setting: kinase LYNa, 1 µmol/L single concentration.
Where [29] appears, read: kinase MAP4K2, 1 µmol/L single concentration.
Setting [30] is: kinase INSR, 1 µmol/L single concentration.
Where [31] appears, read: CDK2/CycA2 kinase assay, 1 µmol/L single concentration, read-out: %-inhibition CDK2/CycA2.
Setting [32] is: CDK2/CycE1 kinase assay, 1 µmol/L single concentration, read-out: %-inhibition CDK2/CycE1.
Setting [33] is: kinase CRIK, 1 µmol/L single concentration.
Setting [34] is: kinase CK1δ, 1 µmol/L single concentration.
[35] abbreviates: CaMK1α kinase assay, 1 µmol/L single concentration.

Each structure is given as a SMILES string. Read-outs that look alike come from different tables or passages of the source.

In the case of `CNC(=O)c1ccc(-c2cnc3ncc(Cc4ccc5ncccc5c4)n3n2)cc1F` [capmatinib], the inhibition at 1 µM in assay [1] was 0.789%; in assay [2] it was -1.68%; in assay [3] it was 21%; in [4], 1.54%; in assay [5], -1.21%; in assay [6], -4%. Moreover, the inhibition at 1 µM in [7] was -4%; in assay [8] it was -5%; in assay [9], -5.59%; in assay [10], 8%; in [11], 1.12%; in assay [12] it was -0.216%. The inhibition at 1 µM was 4.5% in [13]; 1.63% in assay [14] (read-out: %-inhibition CDK2/CycA2); -47% in assay [14] (read-out: %-inhibition CDK2/CycE1); -4.75% in assay [15]; -1.78% in assay [16]; -9% in [17].

For the compound `COC(=O)N[C@@H](C)CNc1nccc(-c2cn(C(C)C)nc2-c2cc(Cl)cc(NS(C)(=O)=O)c2F)n1` [encorafenib], the inhibition at 1 µM in assay [1] (setting [18]) is -2.11%; in assay [2] (setting [19]), -3.25%; in [3] (setting [20]), 14%; in [4] (setting [21]), 2%; in [5] (setting [22]), 0.723%; in [6] (setting [23]) it was -2.36%. In addition, the inhibition at 1 µM in [7] (setting [24]) is -3.42%; in assay [8] (setting [25]) it was -3%; in [9] (setting [26]), 6%; in assay [10] (setting [27]), 3%; in assay [11] (setting [28]), 5%; in assay [12] (setting [29]), 4%. The inhibition at 1 µM in assay [13] (setting [30]) is 9%; in assay [14] (setting [31]) it was 5.57%; in assay [14] (setting [32]), -9%; in assay [15] (setting [33]) it was 2.72%; in [16] (setting [34]), 20%; in assay [17] (setting [35]), 2.72%.

In the case of `Cc1cc(Nc2ncnc3ccc(NC4=NC(C)(C)CO4)cc23)ccc1Oc1ccn2ncnc2c1` [tucatinib], the inhibition at 1 µM in assay [1] (setting [18]) is 7.57%; in assay [2] (setting [19]) it was -5%; in [3] (setting [20]), 94%; in assay [4] (setting [21]), -1.46%; in assay [5] (setting [22]) it was -1.44%; in assay [6] (setting [23]) it was 0.486%. Besides, the inhibition at 1 µM in [7] (setting [24]) is 8%; in [8] (setting [25]) it was 0.181%; in [9] (setting [26]) it was -3.72%; in assay [10] (setting [27]), 7%; in assay [11] (setting [28]), 7%; in assay [12] (setting [29]) it was 6%. Besides, the inhibition at 1 µM is 3% in assay [13] (setting [30]); -0.285% in assay [14] (setting [31]); -36% in assay [14] (setting [32]); -2.49% in assay [15] (setting [33]); -2.17% in assay [16] (setting [34]); -5.47% in [17] (setting [35]).

With `Cn1cnc2c(F)c(Nc3ccc(Br)cc3F)c(C(=O)NOCCO)cc21` [binimetinib], the inhibition at 1 µM in assay [1] (setting [18]) was -0.429%; in [2] (setting [19]), -3.65%; in [3] (setting [20]), 11%; in assay [4] (setting [21]), 0.0508%; in [5] (setting [22]) it was -3.67%; in assay [6] (setting [23]) it was -2.65%. The inhibition at 1 µM in assay [7] (setting [24]) is -13%; in assay [8] (setting [25]), -2.45%; in assay [9] (setting [26]) it was -2.59%; in assay [10] (setting [27]), -1.7%; in assay [11] (setting [28]) it was 3.76%; in [12] (setting [29]), -1.27%. Moreover, the inhibition at 1 µM was 6% in assay [13] (setting [30]); 2.3% in [14] (setting [31]); -14% in assay [14] (setting [32]); -3.44% in [15] (setting [33]); -4% in [16] (setting [34]); -5% in assay [17] (setting [35]).

With `COc1ccc(CN2C3CC2CN(c2ccc(-c4cc(OCC(C)(C)O)cn5ncc(C#N)c45)cn2)C3)cn1` [selpercatinib], the inhibition at 1 µM is -2.71% in assay [1] (setting [18]); 0.226% in assay [2] (setting [19]); 7.42% in assay [3] (setting [20]); -1.76% in assay [4] (setting [21]); 28% in [5] (setting [22]); 0.41% in assay [6] (setting [23]). In addition, the inhibition at 1 µM in [7] (setting [24]) was 37%; in assay [8] (setting [25]), -2.29%; in assay [9] (setting [26]), -5.39%; in assay [10] (setting [27]), 19%; in assay [11] (setting [28]), 60%; in [12] (setting [29]), 4.23%. The inhibition at 1 µM in assay [13] (setting [30]) was 1.51%; in assay [14] (setting [31]) it was 0.89%; in assay [14] (setting [32]) it was -15%; in assay [15] (setting [33]) it was -4.75%; in [16] (setting [34]), -1.7%; in [17] (setting [35]), -5.55%.

In the case of `CCN1C(=O)N(c2c(F)c(OC)cc(OC)c2F)Cc2cnc3[nH]c(CN4CCOCC4)cc3c21` [pemigatinib], the inhibition at 1 µM was -4% in [1] (setting [18]); 5% in assay [2] (setting [19]); 5% in assay [3] (setting [20]); -2.2% in assay [4] (setting [21]); -5% in assay [5] (setting [22]); -2.6% in assay [6] (setting [23]). Further, the inhibition at 1 µM in assay [7] (setting [24]) is -7.4%; in [8] (setting [25]) it was -5%; in [9] (setting [26]), -4.3%; in assay [10] (setting [27]), 5%; in [11] (setting [28]), 66%; in assay [12] (setting [29]) it was 8%. The inhibition at 1 µM was 9% in assay [13] (setting [30]); 3.55% in assay [14] (setting [31]); 7% in assay [14] (setting [32]); -4.34% in [15] (setting [33]); -4.55% in assay [16] (setting [34]); 12% in [17] (setting [35]).

The values are drawn from PMC9516332 (Frontiers in Oncology, 2022).
